Target: T1, Recombinant HCV polymerase (Hepatitis C virus genotype 1b, UniProt P26663)
T1 construct: Recombinant HCV polymerase was tested for its ability to perform primer/template-directed transcription
Test: biochemical
Settings: for IC50: inhibition of polymerase-directed transcription, 30 min at 30° C, 30 nM enzyme, cpm data in triplicate
Experimental: The compounds described herein were tested for activity with HCV polymerase. Recombinant HCV polymerase was tested for its ability to perform primer/template-directed transcription in assays that contained 30 mM tris-HCl pH 7.2, 10 mM MgCl2, 20 mM NaCl, 1 mM Dithiothreitol (DTT), 0.05% Tween-20, 1% glycerol, 5 pmoles biotin-dG12 (primer), 0.5 pmoles poly(rC)300 (template), 1 μM GTP, 0.1–0.3 uCi α-^32P-GTP, and 2.5 pmoles (0.15 μg) HCV polymerase protein in a final volume of 75 μL. Reactions were initiated by addition of enzyme and incubated 30 minutes at 30° C. Reactions were stopped by addition of 33 mM EDTA, and polynucleotide products were collected by filtration through Diethylaminoethyl (DE) Filtermat papers (Wallac). Unincorporated triphosphate was removed by washing the filters with 5% dibasic sodium phosphate. The filters were counted in a Packard Tri-Lux Microbeta scintillation counter (Packard Bioscience, Meriden, Conn.). Compounds to be tested were added at various concentrations, e.g., 1 μm to 50 μm, from stocks in 10% DMSO-water (final DMSO is 1% in reaction).
IC50 values were estimated from the primary cpm data (collected in triplicate) using the formula: cpm (I)=cpm (no inhibitor)(1−([I]/([I]+IC50))). […] A percent inhibition value is expressed for a compound where it was impractical to calculate an IC50 value with available data.

T1 sequence (P26663 2420-3010): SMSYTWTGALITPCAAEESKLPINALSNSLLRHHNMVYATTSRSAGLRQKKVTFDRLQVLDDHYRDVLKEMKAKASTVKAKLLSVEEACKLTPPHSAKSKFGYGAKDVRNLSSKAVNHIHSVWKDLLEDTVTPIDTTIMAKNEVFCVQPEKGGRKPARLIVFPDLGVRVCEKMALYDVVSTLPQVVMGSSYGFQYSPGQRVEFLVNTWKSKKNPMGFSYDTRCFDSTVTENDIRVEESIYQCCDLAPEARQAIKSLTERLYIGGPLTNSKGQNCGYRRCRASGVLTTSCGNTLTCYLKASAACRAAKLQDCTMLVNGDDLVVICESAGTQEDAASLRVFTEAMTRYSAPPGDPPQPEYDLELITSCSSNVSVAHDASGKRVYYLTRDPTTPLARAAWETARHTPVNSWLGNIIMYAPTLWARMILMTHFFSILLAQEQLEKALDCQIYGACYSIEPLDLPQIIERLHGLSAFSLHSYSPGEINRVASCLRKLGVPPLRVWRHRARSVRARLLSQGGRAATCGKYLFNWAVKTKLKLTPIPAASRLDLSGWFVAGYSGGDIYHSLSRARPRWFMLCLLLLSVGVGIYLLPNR

Structure (SMILES)	IC50	inhibition at 50 µM (read-out: % inh @ 50 uM)
Cc1c(CC2=C(O)CC(CCc3ccc(C(C)(C)C#N)c(F)c3)(C3CCCC3)OC2=O)cnn1C (stereo not shown) [A(94), 2-[4-(2-{2-Cyclopentyl-5-[(1,5-dimethyl-1H-pyrazol-4-yl)methyl]-4-hydroxy-6-oxo-3,6dihydro-2H-pyran-2-yl}ethyl)-2-fluorophenyl]-2-methylpropanenitrile]	27 nM	
COc1ccc(CCC2(C3CCCC3)CC(O)=C(Cc3nc4nc(C)cc(C)n4n3)C(=O)O2)cc1C(F)(F)F (stereo not shown) [A(23), 6-Cyclopentyl-3-[(5,7-dimethyl[1,2,4]triazolo[1,5-a]pyrimidin-2-yl)methyl]-4-hydroxy-6-{2-[4-methoxy-3-(trifluoromethyl)phenyl]ethyl}-5,6-dihydro-2H-pyran-2-one]	6 nM	
CCc1cc(CCC2(C3CCCC3)CC(O)=C(Cc3nc4nc(C)cc(C)n4n3)C(=O)O2)ccc1OCCN (stereo not shown) [A(71)]	9 nM	
CCc1cc(CCC2(C3CCCC3)CC(O)=C(Cc3nc4nc(C)cc(C)n4n3)C(=O)O2)ccc1CC#N (stereo not shown) [A(101), [4-(2-{2-Cyclopentyl-5-[(5,7-dimethyl[1,2,4]triazolo[1,5-a]pyrimidin-2-yl)methyl]-4-hydroxy-6-oxo-3,6-dihydro-2H-pyran-2-yl}ethyl)-2-ethylphenyl]acetonitrile]	8 nM	
CCc1cc(CCC2(C3CCCC3)CC(O)=C(Cc3nc4nc(C)cc(C)n4n3)C(=O)O2)ccn1 (single isomer, unassigned) [A(44), 6-Cyclopentyl-3-[(5,7-dimethyl[1,2,4]triazolo[1,5-a]pyrimidin-2-yl)methyl]-6-[2-(2-ethylpyridin-4-yl)ethyl]-4-hydroxy-5,6-dihydro-2H-pyran-2-one]	7 nM	
CCCOc1cc(O)c(CCC2(C3CCCC3)CC(O)=C(Cc3nc4nc(C)cc(C)n4n3)C(=O)O2)cc1CC (stereo not shown) [A(49), 6-Cyclopentyl-3-[(5,7-dimethyl[1,2,4]triazolo[1,5-a]pyrimidin-2-yl)methyl]-6-[2-(5-ethyl-2-hydroxy-4-propoxyphenyl)ethyl]-4-hydroxy-5,6-dihydro-2H-pyran-2-one]	7 nM	
CCc1cc(CCC2(C3CCCC3)CC(O)=C(Cc3nc4nc(C)cc(C)n4n3)C(=O)O2)ccc1CN1CCOCC1 (single isomer, unassigned) [A(156), 6-Cyclopentyl-3-[(5,7-dimethyl[1,2,4]triazolo[1,5-a]pyrimidin-2-yl)methyl]-6-{2-[3-ethyl-4-(morpholin-4-ylmethyl)phenyl]ethyl}-4-hydroxy-5,6-dihydro-2H-pyran-2-one]	5 nM	
CCS(=O)(=O)N[C@H](C)c1ccc(CCC2(C3CCCC3)CC(O)=C(Cc3nc4nc(C)cc(C)n4n3)C(=O)O2)cc1 (stereo partly drawn) [A(81), N-{(1R)-1-[4-(2-{2-cyclopentyl-5-[(5,7-dimethyl[1,2,4]triazolo[1.5-a]pyrimidin-2-yl)methyl]-4-hydroxy-6-oxo-3,6-dihydro-2H-pyran-2-yl}ethyl)phenyl]ethyl}ethanesulfonamide]	120 nM	
CCc1cc(CCC2(C3CCCC3)CC(O)=C(Cc3nc4nc(C)cc(C)n4n3)C(=O)O2)ccc1CN(C)C (racemic) [A(119), 6-cyclopentyl-6-(2-{4-[(dimethylamino)methyl]-3-ethylphenyl}ethyl)-3-[(5,7-dimethyl[1,2,4]triazolo[1,5-a]pyrimidin-2-yl)methyl]-4-hydroxy-5,6-dihydro-2H-pyran-2-one]	10 nM	
Cc1cc(C)n2nc(CC3=C(O)CC(CCc4cc(CC(F)(F)F)nc(CC(F)(F)F)c4)(C4CCCC4)OC3=O)nc2n1 (single isomer, unassigned; enantiomer 2) [A(11), Enantiomer 2 of 6-{2-[2,6-Bis(2,2,2-trifluoroethyl)pyridin-4-yl]ethyl}-6-cyclopentyl-3-[(5,7-dimethyl[1,2,4]triazolo[1,5-a]pyrimidin-2-yl)methyl]-4-hydroxy-5,6-dihydro-2H-pyran-2-one]	8 nM	
CCOc1cnc(CC)cc1CCC1(C2CCCC2)CC(O)=C(Cc2nc3ncc(C)cn3n2)C(=O)O1 (single isomer, unassigned) [A(56), 6-Cyclopentyl-6-[2-(5-ethoxy-2-ethylpyridin-4-yl)ethyl]-4-hydroxy-3-[(6-methyl[1,2,4]triazolo[1,5-a]pyrimidin-2-yl)methyl]-5,6-dihydro-2H-pyran-2-one]	4 nM	
CCc1cc(CCC2(C3CCCC3)CC(=O)CC(=O)O2)ccc1-c1ncco1 (stereo not shown) [A(135), 6-Cyclopentyl-6-{2-[3-ethyl-4-(1,3-oxazol-2-yl)phenyl]ethyl}dihydro-2H-pyran-2,4(3H)-dione]	210 nM	
CS(=O)(=O)c1ccc(CCC2(C3CCCC3)CC(=O)CC(=O)O2)cc1Cl (stereo not shown) [B(2), 6-{2-[3-Chloro-4-(methylsulfonyl)phenyl]ethyl}-6-cyclopentyldihydro-2H-pyran-2,4(3H)-dione]	48000 nM	
Cc1cc(C)n2nc(CC3=C(O)CC(CCc4ccc(O)c(CC(F)(F)F)c4)(C4CCCC4)OC3=O)nc2n1 (single isomer, unassigned) [A(74), 6-Cyclopentyl-3-[(5,7-dimethyl[1,2,4]triazolo[1,5-a]pyrimidin-2-yl)methyl]-4-hydroxy-6-{2-[4-hydroxy-3-(2,2,2-trifluoroethyl)phenyl]ethyl}-5,6-dihydro-2H-pyran-2-one]	3 nM	
CCc1cc(CCC2(C3CCCC3)CC(O)=C(Cc3nc4nc(C)cc(C)n4n3)C(=O)O2)ccc1CNC(C)=O (stereo not shown) [A(131), N-[4-(2-{2-cyclopentyl-5-[(5,7-dimethyl[1,2,4]triazolo[1,5-a]pyrimidin-2-yl)methyl]-4-hydroxy-6-oxo-3,6-dihydro-2H-pyran-2-yl}ethyl)-2-ethylbenzyl]acetamide]	2 nM	
CCc1cc(CCC2(C3CCCC3)CC(=O)CC(=O)O2)c(OC)cc1OCCN(C)C(=O)OC(C)(C)C (stereo not shown) [A(73), tert-Butyl 2-{4-[2-(2-cyclopentyl-4,6-dioxotetrahydro-2H-pyran-2-yl)ethyl]-2-ethyl-5-methoxyphenoxy}ethyl(methyl)carbamate]		19%
Cc1cc(C)n2nc(CC3=C(O)CC(CCc4ccc(C(C)(C)C#N)c(C(F)(F)F)c4)(C4CCCC4)OC3=O)nc2n1 (racemic) [Example B(28), 2-[4-(2-{2-cyclopentyl-5-[(5,7-dimethyl[1,2,4]triazolo[1,5-a]pyrimidin-2-yl)methyl]-4-hydroxy-6-oxo-3,6-dihydro-2H-pyran-2-yl}ethyl)-2-(trifluoromethyl)phenyl]-2-methylpropanenitrile]	5 nM	
CCc1cc(CCC2(C3CCCC3)CC(O)=C(Cc3nc4nc(C)cc(C)n4n3)C(=O)O2)c(OCC(C)C)cc1O (stereo not shown) [A(59)]	3 nM	
CCc1ccnc(CCC2(C3CCCC3)CC(O)=C(Cc3nc4nc(C)cc(C)n4n3)C(=O)O2)c1 (stereo not shown) [A(15), 6-Cyclopentyl-3-[(5,7-dimethyl[1,2,4]triazolo[1,5-a]pyrimidin-2-yl)methyl]-6-[2-(4-ethylpyridin-2-yl)ethyl]-4-hydroxy-5,6-dihydro-2H-pyran-2-one]	7 nM	
Cc1nn(C)c(C)c1CC1=C(O)CC(CCc2ccc(C(C)(C)C#N)c(Cl)c2)(C2CCCC2)OC1=O (stereo not shown) [B(25), 2-[2-Chloro-4-(2-{2-cyclopentyl-4-hydroxy-6-oxo-5-[(1,3,5-trimethyl-1H-pyrazol-4-yl)methyl]-3,6-dihydro-2H-pyran-2-yl}ethyl)phenyl]-2-methylpropanenitrile]	33 nM	
CCc1cc(CCC2(C3CCCC3)CC(O)=C(Cc3nc4nc(C)cc(C)n4n3)C(=O)O2)ccc1Cn1cncn1 (stereo not shown) [A(110), 6-Cyclopentyl-3-[(5,7-dimethyl[1,2,4]triazolo[1,5-a]pyrimidin-2-yl)methyl]-6-{2-[3-ethyl-4-(1H-1,2,4-triazol-1-ylmethyl)phenyl]ethyl}-4-hydroxy-5,6-dihydro-2H-pyran-2-one]	6 nM	
CCc1nn2c(=O)cc(CC3=C(O)CC(CCc4ccc(C(C)(C)C#N)c(F)c4)(C4CCCC4)OC3=O)nc2s1 (stereo not shown) [B(20), 2-[4-(2-{2-Cyclopentyl-5-[(2-ethyl-5-oxo-5H-[1,3,4]thiadiazolo[3,2-a]pyrimidin-7-yl)methyl]-4-hydroxy-6-oxo-3,6-dihydro-2H-pyran-2-yl}ethyl)-2-fluorophenyl]-2-methylpropanenitrile]	5 nM	
Cn1cc(CC2=C(O)CC(CCc3ccc(C(C)(C)C#N)c(Cl)c3)(C3CCCC3)OC2=O)cn1 (stereo not shown) [B(24), 2-[2-Chloro-4-(2-{2-cyclopentyl-4-hydroxy-5-[(1-methyl-1H-pyrazol-4-yl)methyl]-6-oxo-3,6-dihydro-2H-pyran-2-yl}ethyl)phenyl]-2-methylpropanenitrile]	100 nM	
CCc1cc(CCC2(C3CCCC3)CC(O)=C(Cc3nc4nc(C)cc(C)n4n3)C(=O)O2)ccc1CCCOC (stereo not shown) [A(20), 6-Cyclopentyl-3-[(5,7-dimethyl[1,2,4]triazolo[1,5-a]pyrimidin-2-yl)methyl]=6-{2-[3-ethyl-4-(3-methoxypropyl)phenyl]ethyl} -4-hydroxy-5,6-dihydro-2H-pyran-2-one]	9 nM	
CCc1cc(CCC2(C3CCCC3)CC(O)=C(Cc3nc4ncc(C)cn4n3)C(=O)O2)c(OC)cn1 (stereo not shown) [A(4), 6-Cyclopentyl-6-[2-(2-ethyl-5-methoxypyridin-4-yl)ethyl]-4-hydroxy-3-[(6-methyl[1,2,4]triazolo[1,5-a]pyrimidin-2-yl)methyl]-5,6-dihydro-2H-pyran-2-one]	7 nM	

Source: patent US7151105B2, “Inhibitors of Hepatitis C virus RNA-dependent RNA polymerase, and compositions and treatments using the same” (Agouron Pharmaceuticals, Inc., priority 2004, dated 2006)
